Test results as given in ChEMBL document CHEMBL1140141 (J Nat Prod, 2008).

How the values were obtained:
[1] = Inhibition of L-type calcium channel at 10 uM
[2] = molecular target: hERG (KCNH2) (Homo sapiens, UniProt Q12809); assay: Inhibition of human ERG at 10 uM
[3] = molecular target: T1, Alpha-1D adrenergic receptor (Homo sapiens, UniProt P25100); assay: Inhibition of cloned adrenergic Alpha-1D receptor
T1 sequence (P25100 whole entry): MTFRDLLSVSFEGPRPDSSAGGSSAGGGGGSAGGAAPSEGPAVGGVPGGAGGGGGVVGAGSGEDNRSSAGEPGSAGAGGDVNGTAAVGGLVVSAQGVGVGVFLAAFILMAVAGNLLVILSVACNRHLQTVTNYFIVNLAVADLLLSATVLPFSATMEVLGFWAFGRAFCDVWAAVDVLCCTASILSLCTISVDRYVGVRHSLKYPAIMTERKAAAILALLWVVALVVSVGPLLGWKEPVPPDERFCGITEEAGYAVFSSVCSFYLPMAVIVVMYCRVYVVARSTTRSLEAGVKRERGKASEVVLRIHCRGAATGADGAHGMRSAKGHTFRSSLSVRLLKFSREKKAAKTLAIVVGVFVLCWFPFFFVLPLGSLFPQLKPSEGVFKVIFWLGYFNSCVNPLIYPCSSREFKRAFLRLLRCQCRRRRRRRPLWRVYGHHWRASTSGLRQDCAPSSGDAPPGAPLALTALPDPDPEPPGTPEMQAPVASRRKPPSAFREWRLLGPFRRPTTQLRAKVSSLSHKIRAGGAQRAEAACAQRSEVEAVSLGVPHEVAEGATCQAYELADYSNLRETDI

[4] = molecular target: T2, Alpha-2A adrenergic receptor (Homo sapiens) (UniProt P08913); assay: Displacement of [3H]MK912 from human cloned adrenergic alpha-2a receptor at 10 uM
T2 sequence (whole entry): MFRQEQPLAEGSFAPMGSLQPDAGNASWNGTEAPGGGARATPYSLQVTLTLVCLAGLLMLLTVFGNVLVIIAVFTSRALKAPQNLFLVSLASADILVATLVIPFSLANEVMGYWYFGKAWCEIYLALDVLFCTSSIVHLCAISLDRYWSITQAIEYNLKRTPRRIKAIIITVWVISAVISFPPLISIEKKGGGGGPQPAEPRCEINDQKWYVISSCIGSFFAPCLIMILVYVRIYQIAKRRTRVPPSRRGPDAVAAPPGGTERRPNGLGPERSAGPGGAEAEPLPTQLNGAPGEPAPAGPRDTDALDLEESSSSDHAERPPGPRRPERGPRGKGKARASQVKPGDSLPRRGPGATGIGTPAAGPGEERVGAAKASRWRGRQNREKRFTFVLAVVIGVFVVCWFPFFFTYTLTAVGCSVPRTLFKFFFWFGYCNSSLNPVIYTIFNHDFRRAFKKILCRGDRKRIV

[5] = molecular target: T3, Alpha-2A adrenergic receptor (Homo sapiens, UniProt P08913); assay: Displacement of [3H]MK912 from human cloned adrenergic alpha-2a receptor
T3 sequence (P08913 whole entry): T2 sequence (whole entry)

[6] = molecular target: Histamine H2 receptor (Cavia porcellus, UniProt P47747); assay: Displacement of [125I]-APT from histamine H2 receptor in brain of guinea pig; type: tissue-based
Chain of Histamine H2 receptor (P47747 whole entry, looked up): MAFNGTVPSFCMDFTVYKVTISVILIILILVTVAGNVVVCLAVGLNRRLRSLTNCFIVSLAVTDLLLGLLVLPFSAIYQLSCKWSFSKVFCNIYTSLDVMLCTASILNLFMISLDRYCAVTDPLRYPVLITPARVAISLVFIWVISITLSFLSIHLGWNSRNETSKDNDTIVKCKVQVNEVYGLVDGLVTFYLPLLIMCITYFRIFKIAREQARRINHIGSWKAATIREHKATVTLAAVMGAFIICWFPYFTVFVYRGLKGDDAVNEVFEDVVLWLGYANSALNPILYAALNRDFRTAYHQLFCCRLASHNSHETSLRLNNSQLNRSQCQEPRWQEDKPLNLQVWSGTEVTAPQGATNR

[7] = molecular target: Histamine H3 receptor (Rattus norvegicus, UniProt Q9QYN8); assay: Displacement of [3H]SMT from histamine H3 receptor in forebrain of rat
Chain of Histamine H3 receptor (Q9QYN8 whole entry): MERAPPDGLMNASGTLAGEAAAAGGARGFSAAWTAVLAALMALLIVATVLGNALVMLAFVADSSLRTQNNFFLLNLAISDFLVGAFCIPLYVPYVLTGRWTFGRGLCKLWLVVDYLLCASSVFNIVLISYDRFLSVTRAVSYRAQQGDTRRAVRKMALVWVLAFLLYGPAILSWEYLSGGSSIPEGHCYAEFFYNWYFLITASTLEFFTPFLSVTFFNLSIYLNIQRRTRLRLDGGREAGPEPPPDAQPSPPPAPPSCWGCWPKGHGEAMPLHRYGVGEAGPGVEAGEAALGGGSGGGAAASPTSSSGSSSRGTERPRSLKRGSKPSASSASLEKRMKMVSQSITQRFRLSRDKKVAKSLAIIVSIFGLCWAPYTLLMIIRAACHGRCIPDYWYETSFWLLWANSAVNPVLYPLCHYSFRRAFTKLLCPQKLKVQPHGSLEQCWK

[8] = molecular target: T4, Alpha-1D adrenergic receptor (Homo sapiens) (UniProt P25100); settings: 10 uM
T4 sequence (whole entry): T1 sequence (P25100 whole entry)
Description: Inhibition of cloned adrenergic Alpha-1D receptor at 10 uM

[9] = molecular target: Histamine H3 receptor (Rattus norvegicus) (UniProt Q9QYN8); settings: 10 uM
Chain of Histamine H3 receptor (Rattus norvegicus) (Q9QYN8 whole entry): as above
Description: Displacement of [3H]SMT from histamine H3 receptor in forebrain of rat at 10 uM

Chain of hERG (KCNH2) (Q12809 whole entry): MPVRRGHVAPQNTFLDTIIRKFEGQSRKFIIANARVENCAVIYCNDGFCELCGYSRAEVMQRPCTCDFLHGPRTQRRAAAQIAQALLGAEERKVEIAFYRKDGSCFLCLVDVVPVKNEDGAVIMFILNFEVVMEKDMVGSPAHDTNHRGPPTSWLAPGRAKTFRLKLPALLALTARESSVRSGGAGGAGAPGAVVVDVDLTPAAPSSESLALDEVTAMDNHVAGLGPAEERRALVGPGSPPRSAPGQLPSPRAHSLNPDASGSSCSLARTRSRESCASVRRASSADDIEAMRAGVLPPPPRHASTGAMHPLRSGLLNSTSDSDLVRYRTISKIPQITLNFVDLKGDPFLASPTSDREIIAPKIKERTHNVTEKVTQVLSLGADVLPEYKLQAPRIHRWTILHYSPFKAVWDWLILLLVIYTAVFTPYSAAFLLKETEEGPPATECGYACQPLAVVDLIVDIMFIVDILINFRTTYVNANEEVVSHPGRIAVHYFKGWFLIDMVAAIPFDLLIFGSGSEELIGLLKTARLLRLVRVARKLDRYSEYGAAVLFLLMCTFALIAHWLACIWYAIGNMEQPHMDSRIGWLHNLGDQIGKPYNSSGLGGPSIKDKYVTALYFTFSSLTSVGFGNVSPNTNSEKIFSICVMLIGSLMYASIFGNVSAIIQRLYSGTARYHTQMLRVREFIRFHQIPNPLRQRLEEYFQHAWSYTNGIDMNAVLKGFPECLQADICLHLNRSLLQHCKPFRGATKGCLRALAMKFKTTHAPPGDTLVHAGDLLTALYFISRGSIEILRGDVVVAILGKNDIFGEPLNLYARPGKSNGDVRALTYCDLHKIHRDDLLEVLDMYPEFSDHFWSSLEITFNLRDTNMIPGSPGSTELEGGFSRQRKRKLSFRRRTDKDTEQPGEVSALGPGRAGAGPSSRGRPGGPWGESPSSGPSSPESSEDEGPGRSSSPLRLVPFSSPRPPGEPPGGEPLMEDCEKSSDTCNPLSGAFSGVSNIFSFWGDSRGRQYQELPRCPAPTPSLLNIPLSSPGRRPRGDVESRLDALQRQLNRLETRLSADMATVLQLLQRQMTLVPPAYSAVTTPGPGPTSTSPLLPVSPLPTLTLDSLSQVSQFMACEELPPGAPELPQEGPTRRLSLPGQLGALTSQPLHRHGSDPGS

inhibition [1]: 50% | IC50 [3]: 560 nM | Ki [3]: 275 nM | inhibition [4]: 97% | IC50 [5]: 185 nM | Ki [5]: 69 nM | IC50 [6]: 1250 nM | Ki [6]: 1020 nM | IC50 [7]: 2350 nM | Ki [7]: 1040 nM | inhibition [8]: 91% | inhibition [9]: 91%
Compound: CN(C)CCCOc1ccc(CCNC(=O)c2cc(Br)c[nH]2)cc1Br [DISPYRIN]
inhibition at 10 µM [2]: 50%
